Source: patent US9365508B2, “Aroyl thiourea derivatives” (University Court of the University of St Andrews, priority 2009, dated 2016)
Counter-ions that a name gives are not always drawn.

Key:
[1] = target: SIRT1 (Homo sapiens (Human), UniProt Q96EB6); experiment: SIRT1 inhibition assay (Fluor de Lys fluorescence-based assay kit); assay type: biochemical; details: human recombinant enzyme; for inhibition at 60 µM: 60 μM compound, read-out: SirT1 (% inhib at 60 μM)
Experimental: (§1) SIRT1 and SIRT2 Inhibition Assays
(§2) All compounds were tested for inhibition of SIRT1 and SIRT2 using human recombinant enzymes available in the Fluor de Lys fluorescence-based assay kit (BIOMOL, AK555, AK556). All other required reagents were provided in the kit which was stored at −78° C. Before use, small aliquots of each enzyme (2-3 μL) were prepared, snap frozen in liquid nitrogen and stored at −78° C. Fresh dilutions of compounds were prepared in DMSO and further diluted in assay buffer. NAD^+ (12.5 […] at 4 mM) and Fluor de Lys SIRT1 or SIRT2 (12.5 μL at 100 μM) in assay buffer were added to a white 96 well plate, followed by compound (10 μL) and lastly enzyme (15 μL, 0.07 U/μL or SIRT1 and 0.3 U/μL for SIRT2). After incubation for 1 h at 37° C. a developer solution (50 μL) was added to each reaction. The developer solution contained 38 μL buffer, 10 μL developer and 2 μL nicotinamide (50 mM) per reaction. The plate was then incubated for 45 min at rt and then read using a Spectra Max Gemini fluorimeter with an excitation wavelength of 355 nm and an emission wavelength of 460 nm. SigmaPlot software was used to generate fit curves for raw plots and the equation for each curve was used to calculate IC50 data.

[2] = target: SIRT2 (Homo sapiens (Human), UniProt Q8IXJ6); experiment: SIRT2 inhibition assay (Fluor de Lys fluorescence-based assay kit); assay type: biochemical; details: human recombinant enzyme; for inhibition at 60 µM: 60 μM compound, read-out: SirT2 (% inhib at 60 μM)
Experimental: as §1, §2

[3] = test system: 3T3L1 cells; experiment: Adipocyte differentiation assay (ORO red lipid staining); assay type: cell-based, mouse; details: 10 μM compound, 3T3L1 cells in the 8 media, in duplicate, versus controls with and without DMSO
Experimental: Adipocyte Differentiation Assay
3T3L1 cells (i.e. mouse fibroblasts that differentiate into adipocytes in so-called differentiation medium) were treated in a low glucose differentiation medium (as described by F Wang and Q Tong (Molecular Biology of the Cell, 20, 2009, 801-808) with either (i) a normal growth medium (DMEM), (ii) a low glucose differentiation medium containing ciglitazone, d-biotin, dexamethasone, IBMX, insulin and L-thyroxine, or a (iii) a low glucose differentiation medium as per (ii) but lacking one of the components (i.e 6 different media each comprising five components selected from ciglitazone, d-biotin, dexamethasone, IBMX, insulin and L-thyroxine). Cells were stained with ORO red to detect lipid.
The same differentiation assays with each of the 8 differentiation media were then repeated but with addition of DMSO solvent and also 10 μM of compound D3 (5-dimethylamino-pentanoic acid {4-[3-(3,5-dichloro-4-methoxy-benzoyl)-thioureido]-phenyl}-amide hydrochloride) in duplicate.

Sequence of SIRT1 (Q96EB6 whole entry): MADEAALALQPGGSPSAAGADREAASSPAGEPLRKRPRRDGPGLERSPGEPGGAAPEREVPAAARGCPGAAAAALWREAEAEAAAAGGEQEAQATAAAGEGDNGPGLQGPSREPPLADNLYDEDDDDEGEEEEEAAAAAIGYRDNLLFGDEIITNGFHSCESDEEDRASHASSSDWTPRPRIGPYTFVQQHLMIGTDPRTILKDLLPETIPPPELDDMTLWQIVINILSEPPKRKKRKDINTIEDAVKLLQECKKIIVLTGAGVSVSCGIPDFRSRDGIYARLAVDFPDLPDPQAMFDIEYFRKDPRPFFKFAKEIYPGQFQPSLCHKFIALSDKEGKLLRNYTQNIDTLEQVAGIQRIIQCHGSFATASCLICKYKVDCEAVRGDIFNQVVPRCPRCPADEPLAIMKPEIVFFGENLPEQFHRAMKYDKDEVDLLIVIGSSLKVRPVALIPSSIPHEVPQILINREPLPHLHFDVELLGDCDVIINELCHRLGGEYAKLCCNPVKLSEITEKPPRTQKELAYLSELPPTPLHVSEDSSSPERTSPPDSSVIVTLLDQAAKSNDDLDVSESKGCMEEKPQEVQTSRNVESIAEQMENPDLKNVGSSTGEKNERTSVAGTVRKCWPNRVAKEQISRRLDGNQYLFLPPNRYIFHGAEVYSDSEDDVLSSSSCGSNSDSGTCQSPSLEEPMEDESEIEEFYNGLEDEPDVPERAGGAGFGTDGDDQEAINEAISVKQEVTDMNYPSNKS
Sequence of SIRT2 (Q8IXJ6 whole entry): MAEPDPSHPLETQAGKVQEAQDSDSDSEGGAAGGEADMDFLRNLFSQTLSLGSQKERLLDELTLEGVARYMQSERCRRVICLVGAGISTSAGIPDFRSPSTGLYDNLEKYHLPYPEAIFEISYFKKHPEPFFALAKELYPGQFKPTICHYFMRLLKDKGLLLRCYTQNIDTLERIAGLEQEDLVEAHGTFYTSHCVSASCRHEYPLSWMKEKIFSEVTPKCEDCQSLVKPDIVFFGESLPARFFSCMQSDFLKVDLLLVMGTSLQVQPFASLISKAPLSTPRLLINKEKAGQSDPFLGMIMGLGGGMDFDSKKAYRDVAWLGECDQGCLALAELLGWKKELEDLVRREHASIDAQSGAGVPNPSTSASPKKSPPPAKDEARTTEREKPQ

Row | SMILES | inhibition at 60 µM [1] | IC50 [1] | inhibition at 60 µM [2] | IC50 [2] | oro red staining (adipogenesis) [3]
1 | COc1c(Cl)cc(C(=O)NC(=S)Nc2ccc(NC(=O)CCCCN(C)C)cc2)cc1Cl.Cl [Compound D3, 5-Dimethylamino-pentanoic acid {4-[3-(3,5-dichloro-4-methoxy-benzoyl)-thioureido]-phenyl}-amide hydrochloride] | 35% | 62.5 ± 3.6 µM | 80.3% | 10.7 ± 1.6 µM | increases the oro red staining
2 | CN(C)CCCCC(=O)Nc1ccc(NC(=S)NC(=O)c2ccccc2Cl)cc1 [Compound A2, 5-Dimethylamino-pentanoic acid {4-[3-(2-chloro-benzoyl)-thioureido]-phenyl}-amide hydrochloride] | 29.3% | – | 54.3% | – | –
3 | CCOc1c(Cl)cc(C(=O)NC(=S)Nc2ccc(NC(=O)CCCCN(C)C)cc2)cc1Cl [Compound 391a, 5-Dimethylamino-pentanoic acid {4-[3-(3,5-dichloro-4-ethoxy-benzoyl)-thioureido]-phenyl}-amide hydrochloride] | 81.5% | 29.3 ± 3.6 µM | 87.9% | 3 ± 0.1 µM | –
4 | CN(C)CCCCC(=O)Nc1ccc(NC(=S)NC(=O)c2ccccc2)cc1 [Compound B4, 5-Dimethylamino-pentanoic acid [4-(3-benzoyl-thioureido)-phenyl]-amide hydrochloride] | 3.5% | – | 43.7% | – | –
5 | COc1ccc(C(=O)NC(=S)Nc2ccc(NC(=O)CCCCN(C)C)cc2)cc1Cl [Compound 350a, 5-Dimethylamino-pentanoic acid {4-[3-(3-chloro-4-methoxy-benzoyl)-thioureido]-phenyl}-amide hydrochloride] | 9% | – | 37.8% | – | –
6 | Cc1cccc(C(=O)NC(=S)Nc2ccc(NC(=O)CCCCN(C)C)cc2)c1 [Compound B1, 5-Dimethylamino-pentanoic acid {4-[3-(3-methyl-benzoyl)-thioureido]-phenyl}-amide] | 5% | – | 20.9% | – | –

Continued, in another order:

Row | inhibition at 60 µM [1] | IC50 [1] | inhibition at 60 µM [2] | IC50 [2] | SMILES | oro red staining (adipogenesis) [3]
7 | 27.5% | – | 65.1% | – | Cc1ccc(C(=O)NC(=S)Nc2ccc(NC(=O)CCCCN(C)C)cc2)cc1C [Compound C4, 5-Dimethylamino-pentanoic acid {4-[3-(3,4-dimethyl-benzoyl)-thioureido]-phenyl}-amide hydrochloride] | –
8 | 24% | 69.6 ± 0.6 µM | 77.1% | 34.3 ± 7.2 µM | Cc1cc(C(=O)NC(=S)Nc2ccc(NC(=O)CCCCN(C)C)cc2)ccc1Br [Compound C5, 5-Dimethylamino-pentanoic acid {4-[3-(4-bromo-3-methyl-benzoyl)-thioureido]-phenyl}-amide hydrochloride] | –
9 | 70.5% | 39.9 ± 8.1 µM | 81% | 21.2 ± 7.2 µM | CN(C)CCCCC(=O)Nc1ccc(NC(=S)NC(=O)c2cccc(Br)c2)cc1 [Compound A6, 5-Dimethylamino-pentanoic acid {4-[3-(3-bromo-benzoyl)-thioureido]-phenyl}-amide hydrochloride] | –
10 | 33% | 43.9 ± 7.3 µM | 80.2% | 31.9 ± 1.6 µM | Cc1ccc(C(=O)NC(=S)Nc2ccc(NC(=O)CCCCN(C)C)cc2)cc1Br [Compound 330a, 5-Dimethylamino-pentanoic acid {4-[3-(3-bromo-4-methyl-benzoyl)-thioureido]-phenyl}-amide hydrochloride] | –
